Laboratory results: publication PMC12389534, “Unlocking Therapeutic Potential of Novel Thieno-Oxazepine Hybrids as Multi-Target Inhibitors of AChE/BChE and Evaluation Against Alzheimer’s Disease: In Vivo, In Vitro, Histopathological, and Docking Studies” (Pharmaceuticals, 2025)
Entries after “also recorded” stand apart in the source; their conditions may differ.

Tests used:
BChE = target: T1, BChE (Homo sapiens, UniProt P06276); assay: biochemical; conditions: for IC50: fluorescence kit, triplicate; for Selectivity Index BChE/AChE: ratio of IC50 BChE to IC50 AChE, <1 = preferential BChE inhibition
T1 construct: purchased Invitrogen EIABCHEF
T1 sequence (P06276 29-602): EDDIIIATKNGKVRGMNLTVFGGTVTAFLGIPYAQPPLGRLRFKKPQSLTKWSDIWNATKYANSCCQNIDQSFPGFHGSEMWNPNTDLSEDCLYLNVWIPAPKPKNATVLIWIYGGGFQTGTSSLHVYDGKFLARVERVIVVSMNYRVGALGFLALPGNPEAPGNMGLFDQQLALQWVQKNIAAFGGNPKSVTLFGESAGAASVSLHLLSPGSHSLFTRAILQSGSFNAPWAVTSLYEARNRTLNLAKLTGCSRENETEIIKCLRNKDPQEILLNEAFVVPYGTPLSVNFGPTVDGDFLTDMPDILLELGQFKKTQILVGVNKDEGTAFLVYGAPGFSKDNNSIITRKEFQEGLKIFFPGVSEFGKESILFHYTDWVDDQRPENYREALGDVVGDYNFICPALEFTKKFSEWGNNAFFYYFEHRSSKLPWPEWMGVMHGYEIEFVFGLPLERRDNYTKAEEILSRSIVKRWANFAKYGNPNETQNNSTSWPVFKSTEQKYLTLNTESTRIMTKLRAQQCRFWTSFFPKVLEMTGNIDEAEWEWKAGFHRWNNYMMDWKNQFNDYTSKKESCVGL
Method: Using an Invitrogen BChE test kit (Catalog #EIABCHEF), the assay was performed in compliance with the supplier’s instructions. The study was conducted using black 96-well plates. […] Each well was then filled with 50 μL of the reaction mixture, which consisted of fluorescence detection reagent and butyrylthiocholine iodide in assay buffer. The plate was then left to incubate for 20 min at room temperature. Finally, excitation at 390 nm was used to observe emission at 510 nm using a microplate reader. Background fluorescence was further eliminated for each data point.

NFκβ = NFκβ mRNA expression (RT-qPCR); format: in vivo, rat; parameters: reduction of NFκβ mRNA expression: concentration or dose not given beside the values; conditions: AlCl3-induced AD rats; for NFκβ: mRNA expression level, mean ± SE, n = 6
Method: (§1) The brain tissues of the rats were removed and rigorously washed in isotonic saline 24 h after they were euthanized following the last behavioral test. For histological investigation, four brains per group were preserved for the whole night in 10% neutral buffered formalin. The remaining six brains were split into two sections each. In order to create a 10% homogenate (w/v), the first component was instantaneously homogenized using an ice-cold solution that included 300 mM sucrose and 50 mM Tris-HCl (pH 7.4). The homogenate was centrifuged at 1800× g for 10 min at 4 °C for biochemical tests, and the supernatant was thereafter kept at −20 °C. The second portion was set aside for use in RT-PCR analysis at −80 °C [94].
(§2) See Supplementary Information.

AChE = target: T2, AChE (Homo sapiens, UniProt P22303); assay: biochemical; conditions: colorimetric kit, 412 nm
T2 construct: purchased BioVision K197-100
T2 sequence (P22303 32-614): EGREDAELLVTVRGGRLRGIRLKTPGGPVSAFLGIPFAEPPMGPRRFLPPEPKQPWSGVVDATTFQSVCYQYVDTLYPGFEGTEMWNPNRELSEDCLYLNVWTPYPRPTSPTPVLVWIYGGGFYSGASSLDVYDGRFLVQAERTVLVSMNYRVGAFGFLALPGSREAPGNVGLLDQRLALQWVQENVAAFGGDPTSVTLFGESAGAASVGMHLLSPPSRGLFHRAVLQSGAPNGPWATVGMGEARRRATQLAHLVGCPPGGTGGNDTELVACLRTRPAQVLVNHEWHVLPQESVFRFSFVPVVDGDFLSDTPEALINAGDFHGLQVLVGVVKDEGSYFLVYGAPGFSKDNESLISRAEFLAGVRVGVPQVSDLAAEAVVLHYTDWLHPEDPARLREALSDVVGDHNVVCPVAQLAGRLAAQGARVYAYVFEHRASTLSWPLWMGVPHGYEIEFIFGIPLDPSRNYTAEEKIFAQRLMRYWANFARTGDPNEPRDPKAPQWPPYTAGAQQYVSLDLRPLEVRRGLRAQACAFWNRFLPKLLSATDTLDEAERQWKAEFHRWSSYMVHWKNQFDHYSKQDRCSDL
Method: All newly created compounds were subjected to an AChE enzyme inhibitory screening. This was performed with the Colorimetric AChE Inhibitor Screening Kit (BioVision Catalog # K197-100). The 96-well assay kit provides a rapid, simple, and reliable way to screen for AChE inhibitors in large quantities. […] A completely transparent 96-well plate with a flat bottom was loaded with 10 µL of test inhibitors that were diluted (20×). […] A measure of 10 μL of diluted AChE was applied to each well that contained compounds, inhibitor control, and solvent control. […] Measures of 25 μL of AChE assay buffer, 5 μL of probe mix, and 10 μL of diluted AChE substrate were mixed to create the reaction mix. The reaction mix was mixed with the compound, enzyme control, and inhibitor control. […] The IC50 was calculated using nonlinear regression analysis using the response–concentration (log) curve.

Nrf-2 = Nrf-2 mRNA expression (RT-qPCR); format: in vivo, rat; conditions: AlCl3-induced AD rats; for Nrf-2: mRNA expression in brain tissue, mean ± SE, n = 6
Method: as §1, §2

TAC = assay: Brain TAC (colorimetric); format: in vivo, rat; conditions: AlCl3-induced AD rats; for TAC (µmol/g Tissue): brain tissue, mean ± SE, n = 6
Method: as §1
The SOD enzyme activity was estimated using the Marklund et al. method, which is founded on the enzyme’s capacity to decrease the nitro blue tetrazolium dye at a wavelength of 540 nm. To evaluate the TAC, a colorimetric approach was employed to estimate the amount of hydrogen peroxide that remains after 3,5-dichloro-2-hydroxybenzene sulphonate is converted to a colored product at 660 nm.

BDNF = assay: Brain BDNF level (ELISA); format: in vivo, rat; conditions: AlCl3-induced AD rats; for BDNF (ng/mL): brain tissue, mean ± SE, n = 6
Method: as §1, §2

MDA = assay: Brain MDA content (thiobarbituric acid method); format: in vivo, rat; parameters: reduction in MDA brain content: concentration or dose not given beside the values; conditions: AlCl3-induced AD rats; for MDA (nmol/g Tissue): brain tissue, mean ± SE, n = 6
[1] = test system: brain tissue (CC, ST, FD, SN neurons); assay: Histopathological examination of brain tissue; format: in vivo, rat; conditions: brain sections, AlCl3-induced AD rats; for histopathological finding in CC, ST, FD and SN (NP = nuclear pyknosis): H&E
Method: as §1
Brain tissue samples were stationed in 10% formalin for 24 h, washed with water, and then serially diluted with alcohol to induce dehydration. After being submerged in paraffin, the specimens were cut into segments that were 4 µm thick using a microtome.

NE = assay: Brain NE level (fluorometric); format: in vivo, rat; conditions: AlCl3-induced AD rats; for NE (nmol/g Tissue): brain tissue, mean ± SE, n = 6
Method: as §1
(§3) Brain monoamine levels were promptly assessed following the rats’ euthanasia to prevent changes in the substance’s concentration. Dopamine (DA), norepinephrine (NE), and serotonin (5-HT) fluorometric tests were conducted on brain tissue homogenate using the Ciarlone method. […] The concentrations were articulated as nanograms per gram of fresh tissue using the fluorescence of reference solutions [95].

BAX/Bcl-2 = BAX/Bcl-2 ratio of gene expression; format: in vivo, rat; conditions: AlCl3-induced AD rats
Method: as §1, §2

[2] = test system: AlCl3-induced AD rat model; assay: Y-maze SAP test in AlCl3-induced AD rats; format: in vivo; conditions: for SAP%: mean ± SE, n = 6
Method: All procedures were conducted conforming to the applicable National Institutes of Health standards and regulations for the Care and Use of Laboratory Animals. In this experiment, adult male Dawley rats in excellent condition weighing between 300 and 320 g were used. The animals were acquired from the Nile Company for Pharmaceuticals and Chemical Industries (Cairo, Egypt). They were placed in a controlled laboratory setting with unrestricted access to water, a temperature range of 24 to 26 °C, and 12 h a light–dark cycle. Three rats per cage were housed in polycarbonate cages that were individually packed with paper and encased with stainless steel wire.
One kind of short-term memory that SAP can represent is spatial working memory. Three arms, designated A, B, or C, were employed in a black hardwood Y-maze with a symmetrical triangular core space. Rats were briefly positioned at the edge of one arm and given 8 min to freely navigate around the maze. When the rat’s rear paws were fully inside the arm, the entries were counted. The following formula was used to determine SAP based on the total number of arm entries and alternations: SAP (%) = [number of alternations/(total arm entries − 2)] × 100 [94].

5-HT = assay: Brain 5-HT level (fluorometric); format: in vivo, rat; conditions: AlCl3-induced AD rats; for 5-HT (ng/g Tissue): brain tissue, mean ± SE, n = 6
Method: as §1, §3

Caspase-1 = Caspase-1 gene expression (RT-qPCR); format: in vivo, rat; parameters: reduction of Caspase-1 levels: concentration or dose not given beside the values; conditions: AlCl3-induced AD rats; for Caspase-1: gene expression, mean ± SE, n = 6
Method: as §1, §2

| Compound | IC50 (BChE) [µM] | Selectivity Index BChE/AChE (BChE) | NFκβ (NFκβ) | IC50 (AChE) [µM] | Nrf-2 (Nrf-2) | improvement of TAC levels (TAC) | TAC (µmol/g Tissue) (TAC) | BDNF (ng/mL) (BDNF) | MDA (nmol/g Tissue) (MDA) | histopathological finding in CC, ST, FD and SN (NP = nuclear pyknosis) [1] | NE (nmol/g Tissue) (NE) | BAX/Bcl-2 Ratio (BAX/Bcl-2) | increase in SAP% [2] [%] | SAP% [2] | elevation of 5-HT levels (5-HT) [fold] | 5-HT (ng/g Tissue) (5-HT) | Caspase-1 (Caspase-1) | reduction in MDA brain content (MDA) [%] | reduction of NFκβ mRNA expression (NFκβ) [%] | elevation of BDNF levels (BDNF) [fold] | other results |
| --- | --- | --- | --- | --- | --- | --- | --- | --- | --- | --- | --- | --- | --- | --- | --- | --- | --- | --- | --- | --- | --- |
| CCOC(=O)c1c(O)sc2c1CCCCC2 [Compound 2, Ethyl 2-hydroxy-5,6,7,8-tetrahydro-4H-cyclohepta[b]thiophene-3-carboxylate] | 5.72 ± 0.2 | 5.21 | 6.53 ± 0.08 ^abc | 1.1 ± 0.04 | 0.25 ± 0.008 ^abc | 1.9 times | 18.26 ± 0.395 ^abc µmol/g Tissue | 64.95 ± 0.01 ^abc ng/mL | 92.07 ± 0.04 ^abc nmol/g Tissue | moderate NP in CC, FD, and SN, in addition to normal histology in ST; also recorded: significant NP in the CC, FD, and SN, whereas the striatal neurons’ histological structures remained normal | 256.9 ± 1.62 ^abc nmol/g Tissue | 30.11 | 14.6 | 62.33 ± 1.05 ^abc % | 1.7 | 3.16 ± 0.63 ^abc ng/g Tissue | 7.46 ± 0.120 ^abc |  |  |  |  |
| CCOC(=O)c1c(OC(=O)CCl)sc2c1CCCCC2 [Compound 4, Ethyl 2-(2-chloroacetoxy)-5,6,7,8-tetrahydro-4H-cyclohepta[b]thiophene-3-carboxylate] | 56.2 ± 1.93 | 1.36 | 5.77 ± 0.19 ^abc | 41.2 ± 1.42 | 0.31 ± 0.004 ^abc | 2.7 times | 25.87 ± 0.965 ^abc µmol/g Tissue | 75.75 ± 0.01 ^abc ng/mL | 77.14 ± 0.06 ^abc nmol/g Tissue | moderate NP in CC and SN, a moderate number of necrotic neurons in FD, as well as normal histology of ST neurons; also recorded: significant NP in the CC, FD, and SN, whereas the striatal neurons’ histological structures remained normal | 282.6 ± 1.2 ^abc nmol/g Tissue | 19.53 |  | 72.67 ± 1.02 ^abc % | 2.4 | 4.29 ± 0.76 ^abc ng/g Tissue | 6.46 ± 0.120 ^abc | 33.6 |  |  |  |
| O=C1CN(c2ccccc2)C(=O)c2c(sc3c2CCCCC3)O1 [Compound 11, 4-Phenyl-3,4,7,8,9,10-hexahydro-6H-cyclohepta[4,5]thieno[3,2-f][1,4]oxazepine-2,5-dione] | 13.8 ± 0.48 | 5.18 | 4.93 ± 0.08 ^abc | 2.67 ± 0.09 | 0.35 ± 0.006 ^abc | 4 times | 38.23 ± 0.50 ^abc µmol/g Tissue | 127.3 ± 0.01 ^abc ng/mL | 36.75 ± 0.09 ^abc nmol/g Tissue | mild NP in neurons in CC and moderate NP in ST, FD, and SN; also recorded: minor NP in the CC and significant NP in FD, ST, and SN | 321.2 ± 6.11 ^abc nmol/g Tissue | 13.15 | 22 | 69.67 ± 1.69 ^abc % | 5.0 | 9.13 ± 0.36 ^abc ng/g Tissue | 5.92 ± 0.040 ^abc | 68.4 | 41.8 | 3 | rise in the level of NE (NE): 1.7 times; reduction of Caspase-1 levels (Caspase-1): 37.8% |
| O=C1CN(c2ccc(Cl)cc2)C(=O)c2c(sc3c2CCCCC3)O1 [Compound 12, 4-(4-Chlorophenyl)-3,4,7,8,9,10-hexahydro-6H-cyclohepta[4,5]thieno[3,2-f][1,4]oxazepine-2,5-dione] | 65.9 ± 2.27 | 6.04 | 4.30 ± 0.14 ^abc | 10.9 ± 0.38 | 0.64 ± 0.020 ^abc | approximately 3 times | 29.33 ± 0.57 ^abc µmol/g Tissue | 83.62 ± 0.06 ^abc ng/mL | 72.02 ± 0.05 ^abc nmol/g Tissue | normal histology in CC and FD, as well as mild NP in ST and SN | 420.5 ± 2.86 ^abc nmol/g Tissue | 5.91 |  | 76.5 ± 1.52 ^abc % | 2.8 | 5.07 ± 0.18 ^abc ng/g Tissue | 4.54 ± 0.090 ^abc | 38 | 49.2 | 2 | elevation of Nrf-2 mRNA expression (Nrf-2): 4 fold; histology of CC neurons and FD [1]: normal histological structures; pyknosis in ST and SN neurons [1]: minimal pyknosis; rise in the level of NE (NE): 2.2 times; reduction of Caspase-1 levels (Caspase-1): 52.3% |
| N#Cc1ccc(N2CC(=O)Oc3sc4c(c3C2=O)CCCCC4)cc1 [Compound 13, 4-(2,5-Dioxo-2,3,7,8,9,10-hexahydro-6H-cyclohepta[4,5]thieno[3,2-f][1,4]oxazepin-4(5H)-yl)benzonitrile] | 4.22 ± 0.14 | 0.84 | 3.49 ± 0.07 ^abc | 5.04 ± 0.17 | 0.78 ± 0.010 ^abc | ~3.4 times | 32.9 ± 1.22 ^abc µmol/g Tissue | 104.9 ± 0.07 ^abc ng/mL | 52.58 ± 0.08 ^abc nmol/g Tissue | normal histology of CC and FD, and moderate NP in ST and SN | 449.6 ± 2.3 ^abc nmol/g Tissue | 7.34 | ~35 | 82.67 ± 1.28 ^abc % | 4.1 | 7.39 ± 0.1 ^abc ng/g Tissue | 3.85 ± 0.070 ^abc | 54.7 | 58.8 | 2.4 | elevation of Nrf-2 mRNA expression (Nrf-2): 4.8 fold; histology of CC neurons and FD [1]: normal histological structures; pyknosis in ST and SN neurons [1]: moderate pyknosis; rise in the level of NE (NE): 2.4 times; reduction of Caspase-1 levels (Caspase-1): 59.5% |
